We go through 15 substances from US7024311B1, “COMPUTER-AIDED METHOD FOR THE PROVISION, IDENTIFICATION AND DESCRIPTION OF MOLECULES CAPABLE OF EXHIBITING A DESIRED BEHAVIOR, MORE PARTICULARLY IN THE PHARMACEUTICAL SECTOR, AND MOLECULES OBTAINED BY SAID METHOD” (Synt:EM S.A., priority 1997, dated 2006).

Test [1] has as its system CBA mouse recipients of C57B1/6 donor hearts. The test is described as follows: heart-allograft survival in mice (abdominal heterotopic heart transplantation). Format: in vivo. The settings on record: for MSTSD / mean graft survival time: CBA recipients of C57B1/6 donor hearts, peptide intraperitoneal daily from day of transplantation until day nine. As for the experimental part: Abdominal heterotopic heart transplantation was carried out as described previously in J. Thorac. Cardiovasc. Surg., vol. 7, page 225 (1969).
CBA mouse recipients of C57B1/6 donor hearts were treated daily with different doses of peptide following organ transplantation. Peptides were dissolved in DMSO and diluted in PBS (final DMSO concentration 10%) before intraperitoneal administration. Animals were treated from the day of transplantation until day nine. Graft survival was monitored daily by direct palpation, and rejection was defined as termination of palpable cardiac contractility. The statistical significance of prolongation of heart allograft survival was calculated using the Mann-Whitney test.

For test [2] the test system is unchanged. The settings on record: cited from earlier work.

Values joined by “and” are separate entries in the source; they are usually repeats but may differ in a detail not shown here. Identical values can stand only once. Marks after values point to notes of the source that are not given here.

Regarding YRLAIRLNER, the MSTSD in test [1] (dose not printed in table) is given as 12.1 2.8 (2); in test [1] (dose not printed in table, listed as yrlairlner) it was 13.2 2.7 (2). Regarding “RENLRIALRY [peptide derived from HLA-B2702, amino acids 75 to 84, reference compound]”, in test [1] (80 mg/kg/day), the “allograft survival, reference peptide” value is “prolonged allograft survival”. The MSTSD in test [1] (dose not printed in table) is 11.4 2.6 (1)* and 11.4 4.1 (1). The “effect at lower doses, reference peptide” value in test [1] (doses lower than 80 mg/kg/day) is listed as “no effect was observed”. Besides, the “long-term graft survival” value in test [1] (reference peptide administration) was “no long-term graft survival was induced”. Besides, in test [2] (80 mg/kg/day for 10 days following transplantation of B6 donor hearts into CBA recipients, n=8, p<0.01 vs untreated), the heart-allograft survival is 11.4 days. Further, the “heart-allograft survival in mice” value in test [2] (Transplantation, vol. 59, page 455 (1995)) is “prolongs heart-allograft survival in mice”. The “effect on graft survival at lower doses” value in test [2] (doses lower than 80 mg/kg/day) is “No effect on graft survival was observed”.

As for YRLAIRLNVR, the mean graft survival time in test [1] (dose not printed in table) was found to be 12.5 days; in test [1] (dose not printed in table, listed as yrlairlnvr), 12.2 days. Regarding REDLRTLLRY, the MSTSD in test [1] (dose not printed in table) is 7.7 1.2 (11).

RVNLRTALRY displayed a mean graft survival time in test [1] (dose not printed in table) of 8.5 days.

For RESLRLLRGY, the MSTSD in test [1] (dose not printed in table) is on record as 7.5 0.7 (10). Still for that read-out and setting: for RVSLRNLLGY the value was 8.0 0.5 (9); for RVDKRTLLGY, 7.8 1.0 (8); for RMNLQTLRGY, 7.5 0.7 (15). In turn, “NLRIALRYYW [peptide derived from peptide 2702.75-84]” displayed a mean graft survival time in test [1] (dose not printed in table) of 11.6 days. Regarding RVNLRTLRRY, in test [1] (dose not printed in table), the MSTSD is 8.0 0.5 (14). In test [1] (dose not given), “RVNLRIALRY [peptide derived from peptide 2702.75-84]” had a mean graft survival time of 13.1 days. Also, the MSTSD in test [1] (dose not printed in table) was 11.5 0.5 (3). In the case of “ENLRIALR [shortened peptide derived from 2702.75-84]”, the MSTSD in test [1] (dose not printed in table) is reported as 8.5 0.7 (12). For the substance RVDLRTLLRY, the MSTSD in test [1] (dose not printed in table) was 7.0 0.5 (7).

Consider renlpialry, for which the MSTSD in test [1] (dose not printed in table) is on record as 9.5 2.4 (13).
